Source: patent US20080145858A1, “DETECTION AND IDENTIFICATION OF TOXICANTS BY MEASUREMENT OF GENE […]” (priority 2003, published 2008)

Test system: Xenopus laevis embryos
Experiment: Embryonic morphology after PMA treatment
Format: in vivo
Details: added 21 hours after fertilization, 18° C. for 30 hours; untreated showed typical neurula
Description: Embryos were sorted for successful cleavage to 2 cells (1.5 hours after fertilization), split into groups for subsequent treatment (triplicate treatments per each experimental group) and visually monitored for normal embryonic morphology. Rates of abnormal morphology were recorded for each group. Embryos at stage 8 were obtained after incubation of the fertilized embryos at 23° C. for 5 hours. PMA (100 ng/ml) or DMSO (0.01%, solvent used to dissolve PMA) was added to the embryos 2 hours after fertilization. […] Embryos at stage 15 were obtained after incubation of the fertilized embryos at 18° C. for 30 hours (the condition produced stage 15 embryos identical to embryos obtained at 23° C. for 10 hours). PMA or DMSO was added to the embryos 21 hours after fertilization.

CCCCCCCCCCCCCC(=O)O[C@@H]1[C@@H](C)[C@@]2(O)[C@@H](C=C(CO)C[C@@]3(O)C(=O)C(C)=C[C@@H]23)[C@@H]2C(C)(C)[C@]12OC(C)=O [4 alpha-PMA]
embryo morphology / developmental stage reached: typical neurula morphology
